In ChEMBL document CHEMBL4725342, “Design, synthesis and structure-activity relationship study of piperazinone-containing thieno[3,2-d]pyrimidine derivatives as new PI3Kδ inhibitors” (Bioorg Med Chem Lett, 2020):

Assays:
[1] = biological target: T1, Phosphatidylinositol 4,5-bisphosphate 3-kinase catalytic subunit delta isoform (Homo sapiens, UniProt O00329); experiment: Inhibition of PI3Kdelta (unknown origin)
T1 sequence (O00329 whole entry): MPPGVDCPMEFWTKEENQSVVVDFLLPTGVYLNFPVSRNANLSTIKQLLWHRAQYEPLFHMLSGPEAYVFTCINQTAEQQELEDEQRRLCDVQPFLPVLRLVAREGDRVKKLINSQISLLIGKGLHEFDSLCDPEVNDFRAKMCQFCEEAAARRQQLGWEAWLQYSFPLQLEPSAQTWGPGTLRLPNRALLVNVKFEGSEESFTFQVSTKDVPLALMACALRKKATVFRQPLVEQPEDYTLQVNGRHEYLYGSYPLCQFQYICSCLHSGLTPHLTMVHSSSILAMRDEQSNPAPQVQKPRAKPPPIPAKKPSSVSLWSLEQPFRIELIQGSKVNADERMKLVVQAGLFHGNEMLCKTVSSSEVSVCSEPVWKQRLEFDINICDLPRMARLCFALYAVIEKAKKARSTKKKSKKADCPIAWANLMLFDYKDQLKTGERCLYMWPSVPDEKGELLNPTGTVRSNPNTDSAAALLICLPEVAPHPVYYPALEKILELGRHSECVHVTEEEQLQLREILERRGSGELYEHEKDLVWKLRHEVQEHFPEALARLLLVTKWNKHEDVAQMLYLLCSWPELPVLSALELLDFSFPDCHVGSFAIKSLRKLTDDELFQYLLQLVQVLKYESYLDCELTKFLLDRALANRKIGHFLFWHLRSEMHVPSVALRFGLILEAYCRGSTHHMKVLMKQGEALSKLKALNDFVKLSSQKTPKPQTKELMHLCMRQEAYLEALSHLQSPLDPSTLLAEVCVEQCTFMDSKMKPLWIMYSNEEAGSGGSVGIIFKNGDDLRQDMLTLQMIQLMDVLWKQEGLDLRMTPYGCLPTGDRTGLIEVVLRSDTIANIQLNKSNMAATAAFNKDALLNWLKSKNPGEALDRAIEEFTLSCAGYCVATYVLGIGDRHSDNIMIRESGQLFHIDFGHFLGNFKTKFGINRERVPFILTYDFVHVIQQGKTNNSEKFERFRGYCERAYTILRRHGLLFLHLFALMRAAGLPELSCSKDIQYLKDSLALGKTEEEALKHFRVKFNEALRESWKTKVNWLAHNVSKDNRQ

[2] = organism: Homo sapiens; experiment: Selectivity index, ratio of IC50 for PI3Kalpha (unknown origin) to IC50 for PI3Kdelta (unknown origin)
[3] = biological target: Phosphatidylinositol 4,5-bisphosphate 3-kinase catalytic subunit alpha isoform (Homo sapiens, UniProt P42336); experiment: Inhibition of PI3Kalpha (unknown origin)
[4] = biological target: Phosphatidylinositol 4,5-bisphosphate 3-kinase catalytic subunit beta isoform (Homo sapiens, UniProt P42338); experiment: Inhibition of PI3Kbeta (unknown origin)
[5] = biological target: Phosphatidylinositol 4,5-bisphosphate 3-kinase catalytic subunit gamma isoform (Homo sapiens, UniProt P48736); experiment: Inhibition of PI3Kgamma (unknown origin)
[6] = test system: OCI-Ly3; experiment: Antiproliferative activity against human OCILY3 assessed as reduction in cell growth by MTS assay; format: functional, cell-based
[7] = test system: OCI-Ly10; experiment: Antiproliferative activity against human OCILY10 assessed as reduction in cell growth by MTS assay; format: functional, cell-based
[8] = test system: SU-DHL-6; experiment: Antiproliferative activity against human SU-DHL-6 assessed as reduction in cell growth by MTS assay; format: functional, cell-based
[9] = test system: JeKo-1; experiment: Antiproliferative activity against human JeKo-1 assessed as reduction in cell growth by MTS assay; format: functional, cell-based
[10] = test system: Vero; experiment: Cytotoxicity against monkey Vero cells assessed as reduction in cell viability by MTS assay; format: cell-based; details: Chlorocebus sabaeus
[11] = test system: L02; experiment: Cytotoxicity against human L02 cells assessed as reduction in cell viability by MTS assay; format: cell-based
[12] = test system: HEK293; experiment: Cytotoxicity against human HEK293 cells assessed as reduction in cell viability by MTS assay; format: cell-based

Chain of Phosphatidylinositol 4,5-bisphosphate 3-kinase catalytic subunit alpha isoform (P42336 whole entry, canonical isoform): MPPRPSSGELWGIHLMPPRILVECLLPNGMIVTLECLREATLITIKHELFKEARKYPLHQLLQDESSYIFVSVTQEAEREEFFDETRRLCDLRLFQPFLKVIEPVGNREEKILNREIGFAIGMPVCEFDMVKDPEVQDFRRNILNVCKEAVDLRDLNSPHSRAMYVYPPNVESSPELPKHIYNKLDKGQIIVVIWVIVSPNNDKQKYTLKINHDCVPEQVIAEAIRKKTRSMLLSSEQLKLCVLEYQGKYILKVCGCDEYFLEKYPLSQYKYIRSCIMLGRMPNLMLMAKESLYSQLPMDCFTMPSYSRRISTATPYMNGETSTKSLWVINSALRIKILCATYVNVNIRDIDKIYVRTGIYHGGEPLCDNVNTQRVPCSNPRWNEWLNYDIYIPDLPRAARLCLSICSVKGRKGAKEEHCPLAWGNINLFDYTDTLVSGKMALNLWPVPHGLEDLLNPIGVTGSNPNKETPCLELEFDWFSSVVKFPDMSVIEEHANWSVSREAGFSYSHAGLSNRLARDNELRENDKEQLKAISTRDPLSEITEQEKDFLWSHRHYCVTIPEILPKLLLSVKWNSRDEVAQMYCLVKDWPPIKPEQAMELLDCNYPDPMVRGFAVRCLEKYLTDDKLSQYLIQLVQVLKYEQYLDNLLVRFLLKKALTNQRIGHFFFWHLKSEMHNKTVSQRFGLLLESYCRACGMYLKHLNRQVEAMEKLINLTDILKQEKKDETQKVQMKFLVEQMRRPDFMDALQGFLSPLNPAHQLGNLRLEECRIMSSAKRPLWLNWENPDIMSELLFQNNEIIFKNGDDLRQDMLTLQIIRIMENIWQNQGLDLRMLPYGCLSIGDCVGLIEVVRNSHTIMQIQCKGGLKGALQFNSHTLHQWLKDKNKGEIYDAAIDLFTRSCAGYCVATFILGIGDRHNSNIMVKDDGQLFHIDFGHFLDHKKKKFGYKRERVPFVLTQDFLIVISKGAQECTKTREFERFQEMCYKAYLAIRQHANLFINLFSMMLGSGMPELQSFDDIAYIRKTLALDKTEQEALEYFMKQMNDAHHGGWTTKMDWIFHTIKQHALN
Chain of Phosphatidylinositol 4,5-bisphosphate 3-kinase catalytic subunit beta isoform (P42338 whole entry, canonical isoform): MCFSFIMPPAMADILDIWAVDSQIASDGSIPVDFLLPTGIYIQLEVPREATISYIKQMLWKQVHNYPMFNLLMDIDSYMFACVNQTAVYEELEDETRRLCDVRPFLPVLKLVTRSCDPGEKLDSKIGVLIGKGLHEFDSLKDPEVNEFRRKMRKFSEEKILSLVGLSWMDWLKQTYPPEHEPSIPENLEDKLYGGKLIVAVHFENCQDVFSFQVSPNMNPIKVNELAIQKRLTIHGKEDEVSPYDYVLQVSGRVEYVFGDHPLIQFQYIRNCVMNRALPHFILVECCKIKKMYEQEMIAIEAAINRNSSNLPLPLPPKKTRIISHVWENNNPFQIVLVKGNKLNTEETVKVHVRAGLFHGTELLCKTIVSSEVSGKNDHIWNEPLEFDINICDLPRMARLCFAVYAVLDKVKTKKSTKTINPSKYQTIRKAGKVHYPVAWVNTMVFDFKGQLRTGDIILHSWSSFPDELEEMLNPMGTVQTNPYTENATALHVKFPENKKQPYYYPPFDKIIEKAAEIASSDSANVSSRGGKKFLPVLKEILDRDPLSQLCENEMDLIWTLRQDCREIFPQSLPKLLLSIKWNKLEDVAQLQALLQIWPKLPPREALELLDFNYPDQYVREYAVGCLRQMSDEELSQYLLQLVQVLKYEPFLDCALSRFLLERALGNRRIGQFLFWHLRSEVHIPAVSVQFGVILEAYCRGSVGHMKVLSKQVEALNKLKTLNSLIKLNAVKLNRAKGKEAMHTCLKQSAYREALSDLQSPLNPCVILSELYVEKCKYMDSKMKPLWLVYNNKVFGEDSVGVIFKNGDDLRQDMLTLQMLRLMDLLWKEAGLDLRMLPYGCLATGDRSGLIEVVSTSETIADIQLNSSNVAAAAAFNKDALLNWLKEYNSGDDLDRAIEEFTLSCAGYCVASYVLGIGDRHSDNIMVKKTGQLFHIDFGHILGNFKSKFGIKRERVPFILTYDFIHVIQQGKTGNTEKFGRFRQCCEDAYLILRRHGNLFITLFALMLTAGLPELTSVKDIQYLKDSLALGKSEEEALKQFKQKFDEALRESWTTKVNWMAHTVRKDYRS
Chain of Phosphatidylinositol 4,5-bisphosphate 3-kinase catalytic subunit gamma isoform (P48736 whole entry, canonical isoform): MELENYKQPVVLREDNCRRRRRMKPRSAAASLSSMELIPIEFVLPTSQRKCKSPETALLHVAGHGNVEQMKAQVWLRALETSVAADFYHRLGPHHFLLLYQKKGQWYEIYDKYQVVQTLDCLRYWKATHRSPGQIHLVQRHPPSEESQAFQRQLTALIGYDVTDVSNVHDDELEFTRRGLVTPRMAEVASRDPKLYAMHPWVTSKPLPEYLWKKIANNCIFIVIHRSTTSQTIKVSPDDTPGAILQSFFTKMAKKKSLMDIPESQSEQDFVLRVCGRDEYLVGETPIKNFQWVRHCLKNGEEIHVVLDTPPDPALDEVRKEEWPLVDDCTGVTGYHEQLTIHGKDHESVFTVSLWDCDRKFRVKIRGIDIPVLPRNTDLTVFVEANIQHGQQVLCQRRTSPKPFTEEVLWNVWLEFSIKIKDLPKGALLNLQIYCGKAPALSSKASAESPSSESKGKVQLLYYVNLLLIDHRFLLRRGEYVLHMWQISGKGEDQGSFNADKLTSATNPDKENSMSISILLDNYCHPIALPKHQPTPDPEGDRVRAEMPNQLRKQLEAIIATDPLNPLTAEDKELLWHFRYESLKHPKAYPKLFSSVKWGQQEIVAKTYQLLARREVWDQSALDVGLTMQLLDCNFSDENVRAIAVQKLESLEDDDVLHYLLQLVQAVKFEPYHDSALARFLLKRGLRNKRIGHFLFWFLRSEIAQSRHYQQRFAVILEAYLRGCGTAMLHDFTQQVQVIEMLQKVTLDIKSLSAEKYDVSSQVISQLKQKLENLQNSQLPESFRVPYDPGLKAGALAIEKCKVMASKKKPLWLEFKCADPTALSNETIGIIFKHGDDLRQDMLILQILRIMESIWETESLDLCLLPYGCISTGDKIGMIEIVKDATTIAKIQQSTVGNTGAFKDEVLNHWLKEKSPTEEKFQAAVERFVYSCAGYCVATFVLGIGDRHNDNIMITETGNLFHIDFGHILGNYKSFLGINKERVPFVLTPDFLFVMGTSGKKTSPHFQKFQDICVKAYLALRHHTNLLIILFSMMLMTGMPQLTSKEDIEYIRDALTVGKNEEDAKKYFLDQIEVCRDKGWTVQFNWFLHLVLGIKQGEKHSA

Row | Compound | IC50 [1] | Ratio IC50 [2] | other results
1 | CCc1nc2ccccc2n1-c1nc(N2CCOCC2)c2sc(CN3CCN(C4CCOCC4)CC3=O)cc2n1 | 6.2 nM | 61 | 
2 | CCc1nc2ccccc2n1-c1nc(N2CCOCC2)c2sc(CN3CCN(C(C)=O)CC3=O)cc2n1 | 3.2 nM | 35 | 
3 | CCc1nc2ccccc2n1-c1nc(N2CCOCC2)c2sc(CN3CCN(C4CCC(=O)CC4)CC3=O)cc2n1 | 1.6 nM |  | 
4 | CCc1nc2ccccc2n1-c1nc(N2CCOCC2)c2sc(CN3CCN(C4CCN(C)CC4)CC3=O)cc2n1 | 15 nM | 25 | 
5 | CCc1nc2ccccc2n1-c1nc(N2CCOCC2)c2sc(CN3CCN(c4cccnc4)C(=O)C3)cc2n1 | 13 nM | 12 | 
6 | CCc1nc2ccccc2n1-c1nc(N2CCOCC2)c2sc(CN3CCN(S(=O)(=O)C4CC4)CC3)cc2n1 | 4.8 nM | 13 | 
7 | CCc1nc2ccccc2n1-c1nc(N2CCOCC2)c2sc(CN3CCN(C(=O)C4CCC4)CC3=O)cc2n1 | 1.4 nM |  | IC50 [3]: 117 nM; IC50 [4]: 165 nM; IC50 [5]: 303 nM; IC50 [6]: 1500 nM; IC50 [7]: > 10000 nM; IC50 [8]: 80 nM; IC50 [9]: 120 nM; IC50 [10]: > 20000 nM; IC50 [11]: > 20000 nM; IC50 [12]: > 20000 nM
8 | CCc1nc2ccccc2n1-c1nc(N2CCOCC2)c2sc(CN3CCN(CC(N)=O)CC3=O)cc2n1 | 6.2 nM | 25 | 
9 | CCc1nc2ccccc2n1-c1nc(N2CCOCC2)c2sc(CN3CCN(CC(N)=O)C(=O)C3)cc2n1 | 12 nM | 7.1 | 
10 | CCc1nc2ccccc2n1-c1nc(N2CCOCC2)c2sc(CN3CCN(S(=O)(=O)C4CC4)CC3=O)cc2n1 | 1.2 nM | 38 | 
11 | CCc1nc2ccccc2n1-c1nc(N2CCOCC2)c2sc(CN3CCN(C(=O)C4CCCC4)CC3=O)cc2n1 | 2 nM | 95 | 
12 | CCc1nc2ccccc2n1-c1nc(N2CCOCC2)c2sc(CN3CCN(C(=O)OC(C)(C)C)CC3=O)cc2n1 | 12 nM | 52 | 
13 | CCc1nc2ccccc2n1-c1nc(N2CCOCC2)c2sc(CN3CCN(C4CCC(O)CC4)C(=O)C3)cc2n1 (configuration not stated) | 5.7 nM | 7.7 | 
14 | CCc1nc2ccccc2n1-c1nc(N2CCOCC2)c2sc(CN3CCN(C4CCSCC4)CC3=O)cc2n1 | 4.8 nM | 56 | 

The next lines start with results.

Row | IC50 [1] | Ratio IC50 [2] | Compound | other results
15 | 4.4 nM | 10 | CCc1nc2ccccc2n1-c1nc(N2CCOCC2)c2sc(CN3CCN(S(=O)(=O)CC)CC3=O)cc2n1 | 
16 | 2.2 nM | 10 | CCc1nc2ccccc2n1-c1nc(N2CCOCC2)c2sc(CN3CCN(S(C)(=O)=O)CC3=O)cc2n1 | 
17 | 15 nM | 11 | CCc1nc2ccccc2n1-c1nc(N2CCOCC2)c2sc(CN3CCN(CC(=O)N4CCOCC4)C(=O)C3)cc2n1 | 
18 | 2.1 nM | 35 | CCc1nc2ccccc2n1-c1nc(N2CCOCC2)c2sc(CN3CCN([C@H]4CC[C@H](O)CC4)C(=O)C3)cc2n1 | 
19 | 2.5 nM | 49 | CCc1nc2ccccc2n1-c1nc(N2CCOCC2)c2sc(CN3CCN(CC4CC4)C(=O)C3)cc2n1 | 
20 | 2.2 nM | 13 | CCc1nc2ccccc2n1-c1nc(N2CCOCC2)c2sc(CN3CCN(C4CCC5(CC4)OCCO5)CC3=O)cc2n1 | 
21 | 42 nM | 31 | CCc1nc2ccccc2n1-c1nc(N2CCOCC2)c2sc(CN3CCN(C4CCCC4)CC3)cc2n1 | 
22 | 6.3 nM | 64 | CCc1nc2ccccc2n1-c1nc(N2CCOCC2)c2sc(CN3CCN(CC4CC4)CC3=O)cc2n1 | 
